Data reported in paper PMC7528119, “The rapid “teabag” method for high-end purification of membrane proteins” (Scientific Reports, 2020).

Biological target: T1, KCC2 (Monodelphis domestica, UniProt F6WQ48)
T1 construct: gene SLC12A5; N-terminal His and FLAG tag
T1 sequence (F6WQ48 1-1115): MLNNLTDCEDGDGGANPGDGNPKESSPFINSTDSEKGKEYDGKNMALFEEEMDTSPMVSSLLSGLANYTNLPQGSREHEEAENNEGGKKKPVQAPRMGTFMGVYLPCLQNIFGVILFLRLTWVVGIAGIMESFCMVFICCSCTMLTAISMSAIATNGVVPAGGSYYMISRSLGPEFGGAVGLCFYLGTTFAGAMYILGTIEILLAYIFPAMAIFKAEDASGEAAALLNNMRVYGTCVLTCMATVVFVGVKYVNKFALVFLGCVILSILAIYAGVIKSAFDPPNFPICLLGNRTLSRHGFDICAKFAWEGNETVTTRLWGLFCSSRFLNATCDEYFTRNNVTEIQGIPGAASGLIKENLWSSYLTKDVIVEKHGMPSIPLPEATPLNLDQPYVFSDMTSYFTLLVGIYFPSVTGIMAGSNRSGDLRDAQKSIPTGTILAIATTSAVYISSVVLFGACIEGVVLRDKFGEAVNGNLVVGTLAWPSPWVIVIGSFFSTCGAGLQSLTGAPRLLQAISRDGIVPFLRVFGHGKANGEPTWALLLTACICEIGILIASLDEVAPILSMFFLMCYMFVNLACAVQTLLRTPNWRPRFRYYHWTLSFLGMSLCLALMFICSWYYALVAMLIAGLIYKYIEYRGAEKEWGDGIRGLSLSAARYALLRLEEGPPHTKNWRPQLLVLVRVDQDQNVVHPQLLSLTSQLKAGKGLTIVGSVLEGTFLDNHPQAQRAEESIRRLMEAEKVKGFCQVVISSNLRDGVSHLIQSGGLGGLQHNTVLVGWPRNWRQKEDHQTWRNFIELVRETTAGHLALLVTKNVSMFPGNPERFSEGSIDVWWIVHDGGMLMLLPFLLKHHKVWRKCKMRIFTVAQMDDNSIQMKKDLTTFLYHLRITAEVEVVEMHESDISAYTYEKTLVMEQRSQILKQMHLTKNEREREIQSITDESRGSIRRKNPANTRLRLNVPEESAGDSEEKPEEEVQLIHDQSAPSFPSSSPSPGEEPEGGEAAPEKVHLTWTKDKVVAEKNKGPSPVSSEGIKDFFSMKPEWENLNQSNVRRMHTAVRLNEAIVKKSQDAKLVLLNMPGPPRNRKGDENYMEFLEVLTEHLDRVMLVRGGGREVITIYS
Experiment: SPR steady-state affinity on covalently immobilized KCC2
Format: binding

Question: For `Cc1csc(N(C(=O)CSc2ccc(-c3ccccc3)nn2)C2CC2)n1` [VU0463271], which Kd is on record?
Answer: 750 ± 250 nM
